# Test system: NCI-H295R
# Assay: IC50 (antiproliferative, ATP content)
# Conditions: 48 h
# Method in brief: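 Adrenocortical carcinoma cells (1500 per well) were seeded in serum-free ITS-supplemented DMEM in 1536-well plates and cultured overnight. Library compounds were then pin-transferred at 8 final concentrations from 0.6 nM to 46 µM, and plates were kept 48 h at 37 °C, 5% CO2. ATP was read as CellTiter-Glo luminescence after 20 min at room temperature and normalised to vehicle (0%) and positive control (100% inhibition). IC50 came from four-parameter logistic fits; compounds with no concentration response were recorded as above the top dose.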
row,Compound,IC50 [µM]
1,O=C(O)CCn1c2c(c3ccccc31)C[C@H](NS(=O)(=O)c1ccc(F)cc1)CC2,> 46
2,C#C[C@]1(O)CC[C@H]2[C@@H]3CCc4cc(OC)ccc4[C@H]3CC[C@@]21C,> 46
3,CC(C)NCC(O)COc1ccc(CCOCC2CC2)cc1 (stereo unspecified),> 46
4,CCOC(=O)O[C@]1(C(=O)COC(=O)CC)CC[C@H]2[C@@H]3CCC4=CC(=O)C=C[C@]4(C)[C@H]3[C@@H](O)C[C@@]21C,> 46
5,CC(C)c1c(CN(C)C(C)Cc2ccccc2)n(C)n(-c2ccccc2)c1=O (stereo unspecified),> 46
6,CC(Cc1ccccc1)NC=O (stereo unspecified),> 46
7,Cc1cc(C)nc(NS(=O)(=O)c2ccc(N)cc2)n1,> 46
8,O=C([O-])CCC1=C(C)C/3=N\C1=C/C2=C(CCC([O-])=O)C(C)=C(/C=C(C(C=C)=C4C)\N=C4/C=C(C(C=C)=C5C)\N\C5=C3)N2.[Na+].[Na+],> 46
9,CC(N)C(=O)OC(C)(C)Cc1ccc(Cl)cc1 (stereo unspecified),> 46
10,Cc1cccc(Nc2ncccc2C(=O)O)c1C,> 46
11,CC(C)CCON=O,> 46
12,O=[C@@](NC2=O)[C@](N2)3C1=C(OCC3)C=CC(F)=C1,> 46
13,O=C(CCCCCCCCCCCCC1CCCC1)Nc1ccc(S(=O)(=O)c2ccc(NC(=O)CCCCCCCCCCCCC3CCCC3)cc2)cc1,> 46
14,CC(=O)[C@]2(CC[C@H]3[C@@H]4C[C@H](C)\C1=C\C(=O)CC[C@]1(C)[C@H]4CC[C@]23C)OC(C)=O,> 46
15,c1ccc(C2(N3CCCC3)CCCCC2)cc1,> 46
16,CNCc1ccccc1.Cl,> 46
17,CCCCC(=O)O[C@]1(C(=O)CO)CC[C@H]2[C@@H]3CCC4=CC(=O)CC[C@]4(C)[C@H]3[C@@H](O)C[C@@]21C,> 46
18,CC(C)(C)C(=O)OCOP(=O)(COCCn1cnc2c(N)ncnc21)OCOC(=O)C(C)(C)C,> 46
19,COc1ccc2c(c1)N(C[C@H](C)CN(C)C)c1ccccc1S2.O=C(O)/C=C\C(=O)O,> 46
20,C[N+](C)(C)CC[N+]1(C)Cc2c(Cl)c(Cl)c(Cl)c(Cl)c2C1.[Cl-].[Cl-],> 46
21,CCc1ccc(S(=O)(=O)O)cc1,> 46
22,CCCCOc1ccc(OCCCN2CCOCC2)cc1.Cl,> 46
23,O=C(O)[C@@H](S)[C@H](S)C(=O)O,> 46
24,CCOC(=O)c1ccc(N)cc1,> 46
25,CCCCCCCCCCCCCCCCCC[N+](C)(C)CCC[Si](OC)(OC)OC.[Cl-],> 46
26,c1ccc2c(c1)sc1ccccc12,> 46

row,Compound,IC50 [µM]
1,O=[C@@](OCCl)[C@](CC2)(OC(OCC)=O)[C@]1(C)[C@]2([H])[C@@](CCC3=CC4=O)([H])[C@]([C@](C)3C=C4)([H])[C@@H](O)C1,> 46
2,Cl.Nc1c2c(nc3c1CCC3)CCCC2.O,> 46
3,O=C(O)CCNC(=O)c1ccc(/N=N/c2ccc(O)c(C(=O)O)c2)cc1,> 46
4,Cc1ccc(S(=O)(=O)NC(=O)NN2CC3CCCC3C2)cc1 (stereo unspecified),> 46
5,Cl.O=C(COc1ccc(Cl)cc1)N1CCN(Cc2ccc3c(c2)OCO3)CC1,> 46
6,CC(C)(O/N=C(\C(=O)N[C@@H]1C(=O)N2C(C(=O)[O-])=C(C[n+]3ccccc3)CS[C@H]12)c1csc(N)n1)C(=O)O.O.O.O.O.O,> 46
7,CCCCCl,> 46
8,CC(=O)OCC(=O)[C@@]1(O)CC[C@H]2[C@@H]3CCC4=CC(=O)C=C[C@]4(C)[C@@]3(F)[C@@H](O)C[C@@]21C,> 46
9,CC(C)(C)NCC(O)COc1cccc2c1C[C@H](O)[C@H](O)C2 (stereo partly specified),> 46
10,CCON=O,> 46
11,ClC(Cl)(Cl)Cl,> 46
12,Nc1ncnc2c1ncn2CCOCP(=O)(O)O,> 46
13,C=C1[C@H](CO)[C@@H](O)C[C@@H]1n1cnc2c(=O)[nH]c(N)nc21,> 46
14,CNCCCN1c2ccccc2CCc2ccccc21.Cl,> 46
15,CCCC1CCCCN1 (stereo unspecified),> 46
16,CN(CCO)CC(O)Cn1cnc2c1c(=O)n(C)c(=O)n2C.O=C(O)c1cccnc1 (stereo unspecified),> 46
17,CCCCNc1cc(C(=O)O)cc(S(N)(=O)=O)c1Oc1ccccc1,> 46
18,Cl.O=C(c1ccc(F)cc1)C1CCN(CCn2c(=S)[nH]c3ccccc3c2=O)CC1,> 46
19,CCN(CC)S(=O)(=O)c1ccc(C(=O)O)cc1,> 46
20,COc1ccc2cc([C@H](C)C(=O)[O-])ccc2c1.[Na+],> 46
21,O=c1cc[nH]c(=S)[nH]1,> 46
22,C=C(C)C1CC=C(C)CC1 (stereo unspecified),> 46
23,O=c1cc[nH]c(=O)[nH]1,> 46
24,NCCCNCCSP(=O)(O)O,> 46
25,CN(C)CCOc1ccccc1Cc1ccccc1.O=C(O)CC(O)(CC(=O)O)C(=O)O,> 46
